# Experimental data from ChEMBL document CHEMBL3885881, “DrugMatrix”.
# Species on record: Rattus norvegicus
# Test: DrugMatrix - Regimen: Daily Repeat
# Format: toxicity, organism-based, Sprague-Dawley
# Design: regimen Daily Repeat, gender Male, age 6-8 weeks
# Conditions: in vivo, po, route oral GAVAGE, […]; for ABSOLUTE BASOPHIL / ABSOLUTE EOSINOPHIL / ABSOLUTE LYMPHOCYTE / ABSOLUTE MONOCYTE / ABSOLUTE SEGMENTED NEUTROPHIL / BASOPHIL / EOSINOPHIL / ERYTHROCYTE COUNT / HEMATOCRIT / HEMOGLOBIN / LEUKOCYTE COUNT / LYMPHOCYTE / MEAN CORPUSCULAR HEMOGLOBIN / MEAN CORPUSCULAR HEMOGLOBIN CONCENTRATION / MEAN CORPUSCULAR VOLUME / MONOCYTE / NEUTROPHIL / NUCLEATED RED BLOOD CELLS / PLATELET COUNT: tissue Blood; for ALANINE AMINOTRANSFERASE / ALBUMIN / ALKALINE PHOSPHATASE / ASPARTATE AMINOTRANSFERASE / BLOOD UREA NITROGEN / CARBON DIOXIDE / CHLORIDE / CHOLESTEROL / CREATINE PHOSPHOKINASE / CREATININE / GLUCOSE / LACTATE DEHYDROGENASE / LIPASE / PHOSPHORUS / POTASSIUM / SODIUM / TOTAL BILIRUBIN / TOTAL PROTEIN / URIC ACID: tissue Plasma
# [1] = 0 mg/kg, 72 h, dose level Control, time 3 day
# [2] = 0 mg/kg, 120 h, dose level Control, time 5 day
# [3] = 13 mg/kg, 72 h, dose level Low, time 3 day
# [4] = 13 mg/kg, 120 h, dose level Low, time 5 day
compound,measurement,setting,value
CC1=C(/C=C/C(C)=C/C=C/C(C)=C\C(=O)O)C(C)(C)CCC1 [ISOTRETINOIN],ABSOLUTE BASOPHIL,[1],0 CELLS/uL
same,ABSOLUTE EOSINOPHIL,[1],0 CELLS/uL
same,ABSOLUTE LYMPHOCYTE,[1],8493 CELLS/uL
same,ABSOLUTE MONOCYTE,[1],127 CELLS/uL
same,ABSOLUTE SEGMENTED NEUTROPHIL,[1],896.67 CELLS/uL
same,BASOPHIL,[1],0%
same,EOSINOPHIL,[1],0%
same,ERYTHROCYTE COUNT,[1],5.53 x10E6/uL
same,HEMATOCRIT,[1],34.07%
same,HEMOGLOBIN,[1],13.28 G/DL
same,LEUKOCYTE COUNT,[1],9.52 x10E3/uL
same,LYMPHOCYTE,[1],89.17%
same,MEAN CORPUSCULAR HEMOGLOBIN,[1],24.07 pg
same,MEAN CORPUSCULAR HEMOGLOBIN CONCENTRATION,[1],39.03 G/DL
same,MEAN CORPUSCULAR VOLUME,[1],61.62 fL
same,MONOCYTE,[1],1.33%
same,NEUTROPHIL,[1],9.5%
same,NUCLEATED RED BLOOD CELLS,[1],0.17 /100WBC
same,PLATELET COUNT,[1],1054.17 x10E3/uL
same,ALANINE AMINOTRANSFERASE,[1],77.67 u/L
same,ALBUMIN,[1],4.08 G/DL
same,ALKALINE PHOSPHATASE,[1],404.5 u/L
same,ASPARTATE AMINOTRANSFERASE,[1],83.17 u/L
same,BLOOD UREA NITROGEN,[1],14.33 mg/dL
same,CARBON DIOXIDE,[1],33.17 mmol/L
same,CHLORIDE,[1],101 MEQ/L
same,CHOLESTEROL,[1],76.33 mg/dL
same,CREATINE PHOSPHOKINASE,[1],184.5 u/L
same,CREATININE,[1],0.13 mg/dL
same,GLUCOSE,[1],163.67 mg/dL
same,LACTATE DEHYDROGENASE,[1],130.33 u/L
same,LIPASE,[1],11 u/L
same,PHOSPHORUS,[1],9.27 mg/dL
same,POTASSIUM,[1],6.26 MEQ/L
same,SODIUM,[1],143.57 MEQ/L
same,TOTAL BILIRUBIN,[1],0.18 mg/dL
same,TOTAL PROTEIN,[1],5.82 G/DL
same,URIC ACID,[1],1.38 mg/dL
same,ABSOLUTE BASOPHIL,[2],0 CELLS/uL
same,ABSOLUTE EOSINOPHIL,[2],0 CELLS/uL
same,ABSOLUTE LYMPHOCYTE,[2],8546.17 CELLS/uL
same,ABSOLUTE MONOCYTE,[2],49.5 CELLS/uL
same,ABSOLUTE SEGMENTED NEUTROPHIL,[2],554.33 CELLS/uL
same,BASOPHIL,[2],0%
same,EOSINOPHIL,[2],0%
same,ERYTHROCYTE COUNT,[2],5.36 x10E6/uL
same,HEMATOCRIT,[2],33.38%
same,HEMOGLOBIN,[2],13.2 G/DL
same,LEUKOCYTE COUNT,[2],9.15 x10E3/uL
same,LYMPHOCYTE,[2],93.17%
same,MEAN CORPUSCULAR HEMOGLOBIN,[2],24.68 pg
same,MEAN CORPUSCULAR HEMOGLOBIN CONCENTRATION,[2],39.58 G/DL
same,MEAN CORPUSCULAR VOLUME,[2],62.38 fL
same,MONOCYTE,[2],0.5%
same,NEUTROPHIL,[2],6.33%
same,NUCLEATED RED BLOOD CELLS,[2],0.17 /100WBC
same,PLATELET COUNT,[2],1099.33 x10E3/uL
same,ALANINE AMINOTRANSFERASE,[2],62.33 u/L
same,ALBUMIN,[2],4.1 G/DL
same,ALKALINE PHOSPHATASE,[2],419 u/L
same,ASPARTATE AMINOTRANSFERASE,[2],83.17 u/L
same,BLOOD UREA NITROGEN,[2],15.5 mg/dL
same,CARBON DIOXIDE,[2],33.17 mmol/L
same,CHLORIDE,[2],98 MEQ/L
same,CHOLESTEROL,[2],58.33 mg/dL
same,CREATINE PHOSPHOKINASE,[2],393.17 u/L
same,CREATININE,[2],0.18 mg/dL
same,GLUCOSE,[2],163 mg/dL
same,LACTATE DEHYDROGENASE,[2],111.5 u/L
same,LIPASE,[2],9.5 u/L
same,PHOSPHORUS,[2],10.02 mg/dL
same,POTASSIUM,[2],5.73 MEQ/L
same,SODIUM,[2],143.65 MEQ/L
same,TOTAL BILIRUBIN,[2],0.2 mg/dL
same,TOTAL PROTEIN,[2],5.85 G/DL
same,URIC ACID,[2],0.78 mg/dL
same,ABSOLUTE BASOPHIL,[3],0 CELLS/uL
same,ABSOLUTE EOSINOPHIL,[3],0 CELLS/uL
same,ABSOLUTE LYMPHOCYTE,[3],5796.67 CELLS/uL
same,ABSOLUTE MONOCYTE,[3],69.67 CELLS/uL
same,ABSOLUTE SEGMENTED NEUTROPHIL,[3],533.67 CELLS/uL
same,BASOPHIL,[3],0%
same,EOSINOPHIL,[3],0%
same,ERYTHROCYTE COUNT,[3],5.14 x10E6/uL
same,HEMATOCRIT,[3],32.4%
same,HEMOGLOBIN,[3],12.5 G/DL
same,LEUKOCYTE COUNT,[3],6.4 x10E3/uL
same,LYMPHOCYTE,[3],90.67%
same,MEAN CORPUSCULAR HEMOGLOBIN,[3],24.33 pg
same,MEAN CORPUSCULAR HEMOGLOBIN CONCENTRATION,[3],38.63 G/DL
same,MEAN CORPUSCULAR VOLUME,[3],63.07 fL
same,MONOCYTE,[3],1%
same,NEUTROPHIL,[3],8.33%
same,NUCLEATED RED BLOOD CELLS,[3],0 /100WBC
same,PLATELET COUNT,[3],977.33 x10E3/uL
same,ALANINE AMINOTRANSFERASE,[3],80.33 u/L
same,ALBUMIN,[3],3.7 G/DL
same,ALKALINE PHOSPHATASE,[3],427.67 u/L
same,ASPARTATE AMINOTRANSFERASE,[3],93.33 u/L
same,BLOOD UREA NITROGEN,[3],12 mg/dL
same,CARBON DIOXIDE,[3],35 mmol/L
same,CHLORIDE,[3],101.33 MEQ/L
same,CHOLESTEROL,[3],70.33 mg/dL
same,CREATINE PHOSPHOKINASE,[3],298 u/L
same,CREATININE,[3],0.1 mg/dL
same,GLUCOSE,[3],159.67 mg/dL
same,LACTATE DEHYDROGENASE,[3],103.33 u/L
same,LIPASE,[3],9.33 u/L
same,PHOSPHORUS,[3],9.4 mg/dL
same,POTASSIUM,[3],5.18 MEQ/L
same,SODIUM,[3],146.37 MEQ/L
same,TOTAL BILIRUBIN,[3],0.23 mg/dL
same,TOTAL PROTEIN,[3],5.77 G/DL
same,URIC ACID,[3],0.43 mg/dL
same,ABSOLUTE BASOPHIL,[4],0 CELLS/uL
same,ABSOLUTE EOSINOPHIL,[4],25 CELLS/uL
same,ABSOLUTE LYMPHOCYTE,[4],7680.33 CELLS/uL
same,ABSOLUTE MONOCYTE,[4],0 CELLS/uL
same,ABSOLUTE SEGMENTED NEUTROPHIL,[4],428 CELLS/uL
same,BASOPHIL,[4],0%
same,EOSINOPHIL,[4],0.33%
same,ERYTHROCYTE COUNT,[4],5.2 x10E6/uL
same,HEMATOCRIT,[4],33.33%
same,HEMOGLOBIN,[4],13.23 G/DL
same,LEUKOCYTE COUNT,[4],8.13 x10E3/uL
same,LYMPHOCYTE,[4],94.33%
same,MEAN CORPUSCULAR HEMOGLOBIN,[4],25.47 pg
same,MEAN CORPUSCULAR HEMOGLOBIN CONCENTRATION,[4],39.7 G/DL
same,MEAN CORPUSCULAR VOLUME,[4],64.1 fL
same,MONOCYTE,[4],0%
same,NEUTROPHIL,[4],5.33%
same,NUCLEATED RED BLOOD CELLS,[4],0 /100WBC
same,PLATELET COUNT,[4],1135 x10E3/uL
same,ALANINE AMINOTRANSFERASE,[4],75.67 u/L
same,ALBUMIN,[4],3.67 G/DL
same,ALKALINE PHOSPHATASE,[4],483 u/L
same,ASPARTATE AMINOTRANSFERASE,[4],105.33 u/L
same,BLOOD UREA NITROGEN,[4],12.33 mg/dL
same,CARBON DIOXIDE,[4],32 mmol/L
same,CHLORIDE,[4],98.67 MEQ/L
same,CHOLESTEROL,[4],57 mg/dL
same,CREATINE PHOSPHOKINASE,[4],433.67 u/L
same,CREATININE,[4],0.15 mg/dL
same,GLUCOSE,[4],156.67 mg/dL
same,LACTATE DEHYDROGENASE,[4],119.33 u/L
same,LIPASE,[4],9 u/L
same,PHOSPHORUS,[4],10.47 mg/dL
same,POTASSIUM,[4],5.72 MEQ/L
same,SODIUM,[4],143.43 MEQ/L
same,TOTAL BILIRUBIN,[4],0.3 mg/dL
same,TOTAL PROTEIN,[4],5.7 G/DL
same,URIC ACID,[4],0.67 mg/dL
